Here are results for 19 molecules from US20250197372A1 (priority 2020, published 2025).

This test concerns the target T1, recombinant alpha-glucosidase I (human full-length glucosidase I, Glu 1) (Homo sapiens, UniProt Q13724).
T1 construct: 6-His (C); made in house; host or cells: HEK-293T cells transduced with BacMam virus (virus raised in Sf9)
T1 sequence (Q13724 1-837): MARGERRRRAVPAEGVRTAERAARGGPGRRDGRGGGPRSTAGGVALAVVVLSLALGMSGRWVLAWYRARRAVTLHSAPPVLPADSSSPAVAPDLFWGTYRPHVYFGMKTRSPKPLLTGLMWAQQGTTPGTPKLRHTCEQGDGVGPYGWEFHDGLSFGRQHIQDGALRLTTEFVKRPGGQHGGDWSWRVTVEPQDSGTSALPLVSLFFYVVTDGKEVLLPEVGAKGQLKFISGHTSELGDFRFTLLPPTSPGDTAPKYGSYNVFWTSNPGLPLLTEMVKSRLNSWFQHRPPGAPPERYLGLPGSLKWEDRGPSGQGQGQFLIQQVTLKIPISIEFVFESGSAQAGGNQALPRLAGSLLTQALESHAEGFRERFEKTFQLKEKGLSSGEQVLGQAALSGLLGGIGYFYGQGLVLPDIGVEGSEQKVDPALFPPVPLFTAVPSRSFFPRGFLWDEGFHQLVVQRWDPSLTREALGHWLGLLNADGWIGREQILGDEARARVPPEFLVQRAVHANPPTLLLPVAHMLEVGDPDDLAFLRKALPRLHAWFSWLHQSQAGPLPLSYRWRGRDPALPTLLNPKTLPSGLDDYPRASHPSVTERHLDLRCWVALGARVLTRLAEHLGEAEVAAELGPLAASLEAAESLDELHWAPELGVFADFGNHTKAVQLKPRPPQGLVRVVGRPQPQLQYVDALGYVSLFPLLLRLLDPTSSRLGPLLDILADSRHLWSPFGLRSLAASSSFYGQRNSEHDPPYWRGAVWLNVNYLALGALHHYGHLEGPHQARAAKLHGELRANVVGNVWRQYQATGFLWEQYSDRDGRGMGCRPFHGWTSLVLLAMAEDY
The test is described as follows: Alpha-glucosidase I assay (Amplex Red glucose detection, synthetic trisaccharide substrate). The format is biochemical. The text has this:
Preparation of Human Full-length Glucosidase I: The amino acid sequence for human full-length glucosidase I was obtained from UniProt (Q13724). […] The entry vector was cloned into Kemp Proteins' BacMam Destination vector and transformed into chemically competent DH10Bac E. coli cells to produce recombinant glucosidase I bacmids. Bacmid isolates were obtained following two rounds of blue-white screening and they were transfected into Sf9 cells cultivated in serum-free medium (Thermo Fisher Scientific). Four days post-transfection the culture supernatants containing virus were harvested and filter sterilized. […] A multiplicity of infection (MOI, ratio of virus to cells) of 4 was selected. Soluble glucosidase I was detected by anti-His western blots in the soluble cell extract following extraction with 1% V/V NP40 for 30 minutes at 0° C. Productions and purifications of glucosidase I were carried out at scales ranging from 1-liter to 10-liters. […] In another example production at the 10-liter scale was performed in stirred-tank bioreactors at 27° C. and 80 rpm with dissolved oxygen level at 50% of oxygen in air and pH between 7.0 and 7.2. Cells were transduced at MOI of 4 and the cell pellet was harvested at 48 hours post-transduction using centrifugation.
The pellet from a 10-liter culture was lysed by resuspending the pellet into 1-liter of 50 mM NaH2PO4—H2O+300 mM NaCl+10 mM Imidazole+1 mM PMSF+1% V/V NP40 pH 8. The suspension was incubated on ice for 30 minutes and clarified at 500×g and 4° C. The supernatant was collected and clarified at 20,000×g for 30 minutes at 4° C. and the supernatant was collected and filtered through a 0.2 micron filter. […] The column was washed with 20 column volumes (CV) of 50 mM NaH2PO4-H2O+300 mM NaCl+10 mM Imidazole pH 8 and eluted using a linear gradient of 0-60% 50 mM NaH2PO4-H2O+300 mM NaCl+500 mM Imidazole pH 8 over 90 minutes. at 5 mL per minute. Fractions (25 mL) were collected and analyzed by SDS PAGE and Western Blot (reducing anti-His). Fractions containing purified glucosidase I were pooled and dialyzed into storage buffer (20 mM Tris+300 mM NaCl+50 mM L-arginine+10 mM EDTA+0.01% V/V Tween 80 pH 7.5). The final material was filter sterilized and stored at 4° C. and the working dilution confirmed by a use-test in the indicated assay conditions prior to use.
Alpha-glucosidase I Assay: The assay was performed by incubating recombinant alpha-glucosidase I enzyme with multiple dilutions of test compounds for 60 minutes at 37° C. A synthetic trisaccharide substrate analog was then introduced to the mixture for 90 minutes at 37° C. The reaction was then stopped with 1.5M Tris (pH 8). In the absence of inhibition, the terminal glucose of the substrate was hydrolyzed by the enzyme. The D-glucose product was detected using Amplex Red Glucose/Glucose Oxidase Assay Kit (Invitrogen) following the manufacturer's directions where glucose oxidase reacts with D-glucose to form D-gluconolactone and H2O2 which then reacts with the Amplex Red reagent to generate a red-fluorescent oxidation product (560 nm, excitation; 590 nm, emission). […] Percent inhibition is plotted as a function of concentration for each compound, compared to control reactions. The IC50 was determined using a 4-PL curve fit and serves as a measure of relative inhibitory activity of each test compound (see Table 3).

[1] abbreviates: Glucosidase 1, read-out: Glu 1 IC50.

Read-outs that look alike come from different tables or passages of the source.

For `CCCc1nc(-c2cc(Cl)cc(NCCc3ccc(CCN4C[C@H](O)[C@@H](O)[C@H](O)[C@H]4CO)cc3)c2)no1` [Compound 1123, (2R,3R,4R,5S)-1-{2-[4-(2-{[3-chloro-5-(5-propyl-1,2,4-oxadiazol-3-yl)phenyl]amino}ethyl)phenyl]ethyl}-2-(hydroxymethyl)piperidine-3,4,5-triol], the IC50 under setting [1] worked out at 1360 nM.
As to `COC(OC)c1cc(NCCCCCCN2C[C@H](O)[C@@H](O)[C@H](O)[C@H]2CO)cc(-c2ncccn2)c1` [Compound 1124, (2R,3R,4R,5S)-1-(6-{[3-(dimethoxymethyl)-5-(pyrimidin-2-yl)phenyl]amino}hexyl)-2-(hydroxymethyl)piperidine-3,4,5-triol], the IC50 under setting [1] stood at 513 nM.
Turning to `CC(=O)Nc1cc(NCCCCCCN2C[C@H](O)[C@@H](O)[C@H](O)[C@H]2CO)cc(-c2ncccn2)c1` [Compound 1125, N-[3-(pyrimidin-2-yl)-5-({6-[(2R,3R,4R,5S)-3,4,5-trihydroxy-2-(hydroxymethyl)piperidin-1-yl]hexyl}amino)phenyl]acetamide], under setting [1], the IC50 worked out at 337 nM.
Consider `CN(C)C(=O)c1cc(NCCCCCCN2C[C@H](O)[C@@H](O)[C@H](O)[C@H]2CO)cc(-c2ncccn2)c1` [Compound 1126, N,N-dimethyl-3-(pyrimidin-2-yl)-5-({6-[(2R,3R,4R,5S)-3,4,5-trihydroxy-2-(hydroxymethyl)piperidin-1-yl]hexyl}amino)benzamide], for which, under setting [1], the IC50 was found to be 550 nM.
On to `CS(=O)(=O)c1cc(NCCCCCCN2C[C@H](O)[C@@H](O)[C@H](O)[C@H]2CO)cc(-c2ncccn2)c1` [Compound 1128, (2R,3R,4R,5S)-2-(hydroxymethyl)-1-(6-{[3-methanesulfonyl-5-(pyrimidin-2-yl)phenyl]amino}hexyl)piperidine-3,4,5-triol], for which the IC50 under setting [1] amounted to 116 nM.
With `O=Cc1cc(NCCCCCCN2C[C@H](O)[C@@H](O)[C@H](O)[C@H]2CO)cc(-c2ncccn2)c1` [Compound 1129, 3-(pyrimidin-2-yl)-5-({6-[(2R,3R,4R,5S)-3,4,5-trihydroxy-2-(hydroxymethyl)piperidin-1-yl]hexyl}amino)benzaldehyde], the IC50 under setting [1] was found to be 148 nM.
For `N#Cc1cc(NCCCCCCN2C[C@H](O)[C@@H](O)[C@H](O)[C@H]2CO)cc(-c2ncccn2)c1` [Compound 1130, 3-(pyrimidin-2-yl)-5-({6-[(2R,3R,4R,5S)-3,4,5-trihydroxy-2-(hydroxymethyl)piperidin-1-yl]hexyl}amino)benzonitrile], the IC50 under setting [1] stood at 244 nM.
`OC[C@@H]1[C@@H](O)[C@H](O)[C@@H](O)CN1CCCCCCNc1cc(-c2ncccn2)cc(C(F)(F)F)c1` [Compound 1131, (2R,3R,4R,5S)-2-(hydroxymethyl)-1-(6-{[3-(pyrimidin-2-yl)-5-(trifluoromethyl)phenyl]amino}hexyl)piperidine-3,4,5-triol]: under setting [1], the IC50 stood at 232 nM.
As for `COc1cc(C#N)cc(NCCc2ccc(CCN3C[C@H](O)[C@@H](O)[C@H](O)[C@H]3CO)cc2)c1` [Compound 1133, 3-methoxy-5-{[2-(4-{2-[(2R,3R,4R,5S)-3,4,5-trihydroxy-2-(hydroxymethyl)piperidin-1-yl]ethyl}phenyl)ethyl]amino}benzonitrile], the IC50 under setting [1] stood at 1280 nM.
For the molecule `N#Cc1cc(Cl)cc(NCCc2ccc(CCN3C[C@H](O)[C@@H](O)[C@H](O)[C@H]3CO)cc2)c1` [Compound 1134, 3-chloro-5-{[2-(4-{2-[(2R,3R,4R,5S)-3,4,5-trihydroxy-2-(hydroxymethyl)piperidin-1-yl]ethyl}phenyl)ethyl]amino}benzonitrile], the IC50 under setting [1] was 640 nM.
Take `O=[N+]([O-])c1cc(C2CC2)ccc1NCCCCCCN1C[C@H](O)[C@@H](O)[C@H](O)[C@H]1CO` [Compound 1136, (2R,3R,4R,5S)-1-{6-[(4-cyclopropyl-2-nitrophenyl)amino]hexyl}-2-(hydroxymethyl)piperidine-3,4,5-triol]: the IC50 under setting [1] is 25 nM.
Regarding `O=[N+]([O-])c1cc(-c2ccccc2)ccc1NCCCCCCN1C[C@H](O)[C@@H](O)[C@H](O)[C@H]1CO` [Compound 1138, (2R,3R,4R,5S)-2-(hydroxymethyl)-1-[6-({3-nitro-[1,1′-biphenyl]-4-yl}amino)hexyl]piperidine-3,4,5-triol], the IC50 came out at 115 nM.
With `[N-]=[N+]=Nc1ccc(NCCc2cc(Br)cc(CCN3C[C@H](O)[C@@H](O)[C@H](O)[C@H]3CO)c2)c([N+](=O)[O-])c1` [Compound 1140, (2R,3R,4R,5S)-1-[2-(3-{2-[(4-azido-2-nitrophenyl)amino]ethyl}-5-bromophenyl)ethyl]-2-(hydroxymethyl)piperidine-3,4,5-triol], under setting [1], the IC50 stood at 153 nM.
`COc1cc(CC2CCOC2)cc(NCCCCCCN2C[C@H](O)[C@@H](O)[C@H](O)[C@H]2CO)c1` (stereo partly drawn) [Compound 1141, (2R,3R,4R,5S)-2-(hydroxymethyl)-1-[6-({3-methoxy-5-[(oxolan-3-yl)methyl]phenyl}amino)hexyl]piperidine-3,4,5-triol]: the IC50 under setting [1] stood at 1160 nM.
Consider `[N-]=[N+]=Nc1ccc(NCCNc2cc(Cl)cc(CCN3C[C@H](O)[C@@H](O)[C@H](O)[C@H]3CO)c2)c([N+](=O)[O-])c1` [Compound 1143, (2R,3R,4R,5S)-1-{2-[3-({2-[(4-azido-2-nitrophenyl)amino]ethyl}amino)-5-chlorophenyl]ethyl}-2-(hydroxymethyl)piperidine-3,4,5-triol], for which, under setting [1], the IC50 is 334 nM.
For the molecule `COc1cc(Cc2ccccc2)cc(NCCCCCCN2C[C@H](O)[C@@H](O)[C@H](O)[C@H]2CO)c1` [Compound 1145, (2R,3R,4R,5S)-1-{6-[(3-benzyl-5-methoxyphenyl)amino]hexyl}-2-(hydroxymethyl)piperidine-3,4,5-triol], the IC50 under setting [1] amounted to 283 nM.
With `COc1cc(NCCCCCCN2C[C@H](O)[C@@H](O)[C@H](O)[C@H]2CO)cc(C2CCCO2)c1` (stereo partly drawn) [Compound 1146, (2R,3R,4R,5S)-2-(hydroxymethyl)-1-(6-{[3-methoxy-5-(oxolan-2-yl)phenyl]amino}hexyl)piperidine-3,4,5-triol], the IC50 under setting [1] was 511 nM.
Consider `COc1cc(NCCCCCCN2C[C@H](O)[C@@H](O)[C@H](O)[C@H]2CO)cc(C2=CCCO2)c1` [Compound 1147, (2R,3R,4R,5S)-1-(6-{[3-(4,5-dihydrofuran-2-yl)-5-methoxyphenyl]amino}hexyl)-2-(hydroxymethyl)piperidine-3,4,5-triol], for which the IC50 under setting [1] was 263 nM.
For the molecule `COc1cc(NCCCCCCN2C[C@H](O)[C@@H](O)[C@H](O)[C@H]2CO)cc(C2CCCCC2)c1` [Compound 1148, (2R,3R,4R,5S)-1-{6-[(3-cyclohexyl-5-methoxyphenyl)amino]hexyl}-2-(hydroxymethyl)piperidine-3,4,5-triol], under setting [1], the IC50 was 372 nM.

As a reminder, the IC50 is the concentration that gives 50% inhibition.
